Several values for one entry are separate records, joined by “and”; a condition that tells them apart may be missing. Equal entries are not always repeated.
| SMILES | melting point |
| --- | --- |
| CC(=O)c1ccccc1[N+](=O)[O-] [1-(2-Nitrophenyl)ethanone] | 23 °C |
| Cc1ccccc1CNC(=S)Nc1ccccc1 [1-(2-methylbenzyl)-3-phenylthiourea] | 163 °C |
| Cc1ccc(N2C(=O)C=CC2=O)cc1Cl [1-(3-Chloro-4-methylphenyl)-1H-pyrrole-2,5-dione] | 140 °C |
| CC(=O)c1cccc([N+](=O)[O-])c1 [1-(3-Nitrophenyl)ethanone] | 81 °C |
| O=[N+]([O-])c1ccc(OCC(O)CO)cc1 (stereo not given) [1-(4-nitrophenyl)glycerol] | 96 °C |
| NCc1ccc2c(Br)cccc2c1 [1-(5-bromonaphthalen-2-yl)methanamine] | 112 °C |
| COc1ccc2cc(C(C)O)ccc2c1 (stereo not given) [1-(6-methoxy-2-naphthyl)ethanol] | 112 °C |
| CC(N1CCOCC1)S(=O)(=O)O (stereo not given) [1-(Morpholin-4-yl)ethanesulfonic acid] | 243 °C |
| CCCCCOCCCCC [1-(Pentyloxy)pentane] | -69 °C |
| Cc1ccccc1N1CCNCC1 [1-(o-tolyl)piperazine] | 47 °C |
| CC(O)c1c(F)c(F)c(F)c(F)c1F (stereo not given) [1-(pentafluorophenyl)ethanol] | 33 °C |
| O=C(/C=C/c1ccccc1)n1ccnc1 [1-(trans-cinnamoyl)imidazole] | 130 °C |
| C=CCNC(N)=S [1-Allylthiourea] | 71 °C |
| O=C(O)c1cccc2c1nnn2Cc1ccccc1 [1-Benzyl-1H-benzotriazole-4-carboxylic acid] | 221 °C |
| C=C(F)Cl [1-Chloro-1-fluoroethene] | -169 °C |
| ClCCOCCCl [1-Chloro-2-(2-chloroethoxy)ethane] | -47 °C |
| Cc1ccc(Cl)cc1 [1-Chloro-4-methylbenzene] | 7.5 °C |
| CCCCl [1-Chloropropane] | -122 °C |
| CCCCOCC [1-Ethoxybutane] | -103 °C |
| COc1ccc(Cl)c(Cl)c1Cl [1-Methoxy-2,3,4-trichlorobenzene] | 70 °C |

| SMILES | melting point |
| --- | --- |
| Cc1ccccc1[N+](=O)[O-] [1-Methyl-2-nitrobenzene] | -10 °C |
| C=Cc1ccc(C)cc1 [1-Methyl-4-vinylbenzene] | -72.5 °C |
| Cn1cc([N+](=O)[O-])c(O)nc1=O [1-Methyl-5-nitropyrimidine-2,4(1H,3H)-dione] | 269 °C |
| CN1CCCC1=O [1-Methylpyrrolidin-2-one] | -23 °C |
| CC(=O)c1ccccc1 [1-Phenylethanone] | 19 °C |
| NCc1ccccc1 [1-Phenylmethanamine] | -46 °C |
| O=C1CCN(c2ccccc2)N1 [1-Phenylpyrazolidin-3-one] | 122 °C |
| CC(=O)NNC(N)=S [1-acetyl-3-thiosemicarbazide] | 167 °C |
| CC(=O)N1CCc2cc(Br)ccc21 [1-acetyl-5-bromoindoline] | 120 °C |
| OCC12CC3CC(CC(C3)C1)C2 [1-adamantanemethanol] | 117 °C |
| Nc1cccc2c1C(=O)c1ccccc1C2=O [1-aminoanthraquinone] | 254 °C |
| CCCCCCCN [1-aminoheptane] | -18 °C |
| NC1CCc2ccccc21 (stereo not given) [1-aminoindane] | 2 °C |
| Nc1cccc2ccccc12 [1-aminonaphthalene] | 49 °C |
| CCCCCN [1-aminopentane] | -55 °C |
| Cc1c(C)c(C)c(Br)c(C)c1C [1-bromo-2,3,4,5,6-pentamethylbenzene] | 165 °C |
| Cc1cc(C)c(C)c(Br)c1C [1-bromo-2,3,5,6-tetramethylbenzene] | 60 °C |
| Clc1ccc(Br)c(Cl)c1 [1-bromo-2,4-dichlorobenzene] | 27 °C |
| COc1ccc(Br)c(OC)c1 [1-bromo-2,4-dimethoxybenzene] | 26 °C |
| CC(C)CBr [1-bromo-2-methylpropane] | -117 °C and -118 °C |

| SMILES | melting point |
| --- | --- |
| Oc1ccc2ccccc2c1Br [1-bromo-2-naphthol] | 79 °C |
| CCc1ccc(Br)cc1 [1-bromo-4-ethylbenzene] | -43 °C |
| CC(C)(C)c1ccc(Br)cc1 [1-bromo-4-tert-butylbenzene] | 16 °C |
| CCCCCCCCCCBr [1-bromodecane] | -29 °C |
| CCCCCCCCCCCCBr [1-bromododecane] | -10 °C |
| Brc1cccc2ccccc12 [1-bromonaphthalene] [listing 1 of 2 here] | -1 °C |
| Brc1cccc2ccccc12 [1-bromonaphthalene] [listing 2 of 2 here] | -1 °C |
| CCCCCCCCBr [1-bromooctane] | -55 °C |
| Cc1ccn(C(N)=O)n1 [1-carbamoyl-3-methylpyrazole] | 148 °C |
| COc1cc(Cl)cc(OC)c1 [1-chloro-3,5-dimethoxybenzene] | 34 °C |
| Clc1ccc(I)cc1 [1-chloro-4-iodobenzene] | 55 °C |
| CCCCCCCCCCCCCl [1-chlorododecane] | -9 °C |
| Clc1cccc2ccccc12 [1-chloronaphthalene] | -8 °C |
| CCCCCCCCCl [1-chlorooctane] | -58 °C |
| O=[N+]([O-])c1ccc(F)cc1 [1-fluoro-4-nitrobenzene] | 23 °C |
| Oc1ccc(Cl)cc1Cc1cc(Cl)ccc1O [2,2'-Methylenebis(4-chlorophenol)] | 170 °C |
| Oc1ccccc1-c1ccccc1O [2,2'-dihydroxybiphenyl] | 109 °C |
| OC(c1ccc(Cl)cc1)(c1ccc(Cl)cc1)C(Cl)(Cl)Cl [2,2,2-Trichloro-1,1-bis(4-chlorophenyl)ethanol] | 78.5 °C |
| NC(=O)C(Cl)(Cl)Cl [2,2,2-Trichloroacetamide] | 142 °C |

Further lines, results first:

| melting point | SMILES |
| --- | --- |
| -99 °C | CCCCCCl [1-chloropentane] |
| -44 °C | C#CCCCCCCCC [1-decyne] |
| 26 °C | CCCCCCCCCCCCO [1-dodecanol] |
| 29 °C | C=CCCCCCCCCCCCCCCCCCC [1-eicosene] |
| 47 °C | CCc1ccc(-c2ccccc2)cc1 [1-ethyl-4-phenylbenzene] |
| 110 °C | CCN1CCNC(=O)C1=O [1-ethylpiperazine-2,3-dione] |
| -10 °C | Fc1cccc2ccccc12 [1-fluoronaphthalene] |
| -43 °C | CCCCCCCS [1-heptanethiol] |
| -119 °C | C=CCCCCC [1-heptene] |
| -132 °C | C#CCCCC [1-hexyne] |
| -44 °C | CCCCCCCCI [1-iodooctane] |
| 70 °C | COc1ccc(Cl)c(Cl)c1Cl [1-methoxy-2,3,4-trichlorobenzene] |
| 75 °C | Cn1c(=O)ccc2ccccc21 [1-methyl-2-quinolinone] |
| -41 °C | Cc1cccc(C(C)(C)C)c1 [1-methyl-3-tert-butylbenzene] |
| 55 °C | CN1CCN(C2CCNCC2)CC1 [1-methyl-4-(4-piperidinyl)piperazine] |
| 48 °C | Cc1ccc(-c2ccccc2)cc1 [1-methyl-4-phenylbenzene] |
| 120 °C | Cn1c(C=O)nc2ccccc21 [1-methylbenzimidazole-2-carboxaldehyde] |
| 135 °C | Cc1cccc2c1-c1nc3ccccc3nc1-2 [1-methylbenzo[3,4]cyclobuta[1,2-b]quinoxaline] |
| 207 °C | OB(O)c1cccc2ccccc12 [1-naphthaleneboronic acid] |
| 161 °C | O=C(O)c1cccc2ccccc12 [1-naphthoic acid] |
| 45 °C | CC(=O)Oc1cccc2ccccc12 [1-naphthyl acetate] |
| 34 °C | N#CCc1cccc2ccccc12 [1-naphthylacetonitrile] |
| 33 °C | C#CCCCCCCCCCCCCCCCCC [1-nonadecyne] |
| -1 °C | CCCCCCCCCN [1-nonylamine] |
| -50 °C | C#CCCCCCCC [1-nonyne] |
| 129 °C | CC(=O)O[C@H]1O[C@@H](COC(=O)c2ccccc2)[C@H](OC(=O)c2ccccc2)[C@@H]1OC(=O)c1ccccc1 [1-o-acetyl-2,3,5-tri-o-benzoyl-beta-D-ribofuranose] |

| melting point | SMILES |
| --- | --- |
| 32 °C | CCCCCCCCCCCCCCCCCCS [1-octadecanethiol] |
| 18 °C | C=CCCCCCCCCCCCCCCCC [1-octadecene] |
| -49 °C | CCCCCCCCS [1-octanethiol] |
| -4 °C | C=CCCCCCCCCCCCCC [1-pentadecene] |
| -162 °C | C=CCCC [1-pentene] |
| -55 °C | CCCCCN [1-pentylamine] |
| -185 °C | C=CC [1-propene] |
| 137 °C | CC(C)(C)N1CCNC1=O [1-tert-butyl-2-imidazolidinone] |
| -12 °C | C=CCCCCCCCCCCCC [1-tetradecene] |
| 34 °C | CCCCCCCCCCCCCO [1-tridecanol] |
| -23 °C | C=CCCCCCCCCCCC [1-tridecene] |
| 16 °C and 14 °C | CCCCCCCCCCCO [1-undecanol] |
| -25 °C | C#CCCCCCCCCC [1-undecyne] |
| 159 °C | On1nnc2ccccc21 [1H-Benzotriazol-1-ol] |
| 138 °C | CC1=C(C)C(C)N=N1 (stereo not given) [1H-pyrazole, 3,4,5-trimethyl-] |
| 190 °C | CSC1N=NC(N)=C1C#N (stereo not given) [1H-pyrazole-4-carbonitrile, 3-amino-5-(methylthio)-] |
| 98 °C | c1ccc2[nH]nnc2c1 [1h-benzotriazole] |
| 87 °C | CC(=O)N(C)c1ccc(Cl)cc1Cl [2',4'-dichloro-n-methylacetanilide] |
| 128 °C | COc1cc(/C=C/C(=O)c2ccccc2O)ccc1O [2',4-dihydroxy-3-methoxychalcone] |
| 12 °C | CC(=O)c1cc(Cl)ccc1Cl [2',5'-dichloroacetophenone] |
| 163 °C | O=c1ccn([C@@H]2C[C@H](O)[C@@H](CO)O2)c(=O)[nH]1 [2'-Deoxyuridine] |
| 149 °C | CC(=O)Nc1cc(C)ccc1O [2'-hydroxy-5'-methylacetanilide] |
| 33 °C | Nc1ccccc1CCc1ccccc1N [2,2'-Ethane-1,2-diyldianiline] |
| 83 °C | O=C(C(=O)c1cccs1)c1cccs1 [2,2'-thenil] |
| -11 °C | CC(C)C(O)C(C)(C)C (stereo not given) [2,2,4-trimethyl-3-pentanol] |
